Data as given in the NIST ThermoML archive (doi:10.1016/j.jct.2014.02.018).
Several values for one entry are separate records, joined by “and”; a condition that tells them apart may be missing. Equal values may be shown once.

Settings: Crystal, Calculated from knudsen effusion weight loss

Cn1cc(F)c(=O)n(C)c1=O [2,4(1H,3H)-pyrimidinedione, 5-fluoro-1,3-dimethyl-]
Settings	vapor or sublimation pressure
317.18 K	8.39e-05 kPa and 8.8e-05 kPa and 8.46e-05 kPa
319.21 K	0.0001113 kPa and 0.0001195 kPa and 0.0001105 kPa
321.12 K	0.0001414 kPa and 0.0001372 kPa and 0.000135 kPa
323.18 K	0.0001684 kPa and 0.0001645 kPa and 0.0001712 kPa
325.22 K	0.00021 kPa and 0.0002051 kPa and 0.0002013 kPa
327.13 K	0.0002547 kPa and 0.0002583 kPa and 0.0002608 kPa
329.18 K	0.0003128 kPa and 0.0003165 kPa and 0.000333 kPa
331.22 K	0.0004074 kPa and 0.0004027 kPa and 0.0004159 kPa
333.12 K	0.0005058 kPa and 0.0004953 kPa and 0.0005012 kPa
335.17 K	0.0006116 kPa and 0.0006003 kPa and 0.0006128 kPa
337.24 K	0.0007507 kPa and 0.0007652 kPa and 0.0007436 kPa
339.14 K	0.0009104 kPa and 0.0009266 kPa and 0.0009283 kPa

O=c1[nH]cc(F)c(=O)[nH]1 [5-fluoro-2,4(1H,3H)-pyrimidinedione]
Settings	vapor or sublimation pressure
411.14 K	0.000178 kPa and 0.000166 kPa and 0.000165 kPa
413.1 K	0.000207 kPa and 0.000197 kPa and 0.000198 kPa
415.14 K	0.000239 kPa and 0.000235 kPa and 0.000246 kPa
417.14 K	0.000261 kPa and 0.000283 kPa and 0.000278 kPa
419.14 K	0.000347 kPa and 0.000332 kPa and 0.000351 kPa
421.18 K	0.000418 kPa and 0.000401 kPa and 0.000406 kPa
423.16 K	0.000477 kPa and 0.000472 kPa and 0.000474 kPa
425.11 K	0.000588 kPa and 0.000561 kPa and 0.00058 kPa
427.16 K	0.000669 kPa and 0.000668 kPa
429.15 K	0.000836 kPa and 0.000794 kPa and 0.000829 kPa
431.11 K	0.001027 kPa and 0.001013 kPa and 0.000961 kPa
433.17 K	0.001185 kPa and 0.001148 kPa and 0.001135 kPa
